# Measurements as given in patent US20250041254A1, “USE OF SODIUM FORMATE IN PREPARATION OF AN ANTI-INFECTIVE DRUG” (priority 2022, published 2025).
# Key:
# Assay type in all cases: cell-based
# [1] = tested on: clinical multidrug-resistant and carbapenem-resistant Escherichia coli (CR-EC); experiment: Survival rate (dot plate counting) of clinical multidrug-resistant and carbapenem-resistant Escherichia coli, 18 strains; settings: 10 hours
# Protocol: (§1) Single bacterial colonies were selected and inoculated into a 5 mL LB medium, cultivated at 37° C. (clinically multidrug-resistant and carbapenem-resistant or multidrug-resistant but carbapenem-sensitive Escherichia coli, clinically multidrug-resistant and carbapenem-resistant or multidrug-resistant but carbapenem-sensitive Klebsiella pneumoniae, clinically multidrug-resistant and carbapenem-resistant or multidrug-resistant but carbapenem-sensitive Pseudomonas aeruginosa, methicillin-resistant Staphylococcus aureus, and sensitive bacteria for each type of bacteria) or 30° C. […]
# (§2) Thirty-six clinical multidrug-resistant Escherichia coli samples were prepared according to Embodiment 1, of which 18 were clinical multidrug-resistant and carbapenem-resistant Escherichia coli (abbreviated as CR-EC) and 18 were clinical multidrug-resistant but carbapenem-sensitive Escherichia coli (abbreviated as MDR-EC). […] The number of bacteria was counted. […]
# [2] = tested on: clinical multidrug-resistant but carbapenem-sensitive Escherichia coli (MDR-EC); experiment: Survival rate (dot plate counting) of clinical multidrug-resistant but carbapenem-sensitive Escherichia coli, 18 strains; settings: 10 hours
# Protocol: as §1, §2
# [3] = tested on: clinically multidrug-resistant and carbapenem-resistant Escherichia coli strain No. 28; experiment: Live bacterial count / survival rate of CR Escherichia coli strain No. 28 (antibiotic concentration, sodium formate concentration, time, other antibiotics)
# Protocol: Single bacterial colonies were selected and inoculated into a 5 mL LB medium, cultivated at 37° C. (clinically multidrug-resistant and carbapenem-resistant or multidrug-resistant but carbapenem-sensitive Escherichia coli, clinically multidrug-resistant and carbapenem-resistant or multidrug-resistant but carbapenem-sensitive Klebsiella pneumoniae, clinically multidrug-resistant and carbapenem-resistant or multidrug-resistant but carbapenem-sensitive Pseudomonas aeruginosa, methicillin-resistant Staphylococcus aureus, and sensitive bacteria for each type of bacteria) or 30° C. (Edwardsiella tarda and Vibrio) at 200 rpm for 16-24 hours; an appropriate amount of a bacterial solution was taken for centrifugation at 8000 rpm for 5 min to collect bacterial cells, the supernatant was removed, and the bacterial cells were washed with an equal volume of 0.85% normal saline for 3 times and suspended in M9 medium (containing 10 mM proline, 2 mM MgSO4. 0.1 mM CaCl2)), and a base bacterial solution was cultured with M9 to an OD600 concentration of 0.6 and divided into 5 mL test tubes for later use.
# Taking clinically multidrug-resistant and carbapenem-resistant Escherichia coli strain No. 28 as an example, adding different concentrations of sodium formate or different concentrations of antibiotics and under different treating times, the effect of improving the sensitivity of multidrug-resistant Escherichia coli to micronomicin was studied in depth.
# To understand how sodium formate increased the sensitivity of bacteria to micronomicin at different antibiotic concentrations, on the basis of exogenous addition of 20 mM sodium formate, 30-480 μg/mL (several concentrations of) micronomicin was added to treat bacteria. No antibiotic addition was used as a control, and live bacterial counts were performed to compare the survival rates of bacteria with and without the addition of sodium formate at the same antibiotic concentration after 10 hours.
# To investigate whether there was a gradient effect between the concentration of sodium formate and the bactericidal efficiency, as well as its optimal bactericidal concentration, different concentrations of sodium formate (0.625 mM-40 mM) were added on the basis of 60 μg/mL micronomicin addition for 10 hours, then live bacteria were counted, and the survival rate was calculated according to a formula as the following: the number of live bacteria with different concentrations of sodium formate addition/the number of live bacteria without sodium formate addition×100%.
# Further research was conducted on adding 20 mM sodium formate and 60 μg/mL micronomicin and counting live bacteria at different time, and the relationship between its bactericidal efficiency and time was observed.
# To investigate whether the addition of sodium formate is effective to antibiotics other than micronomicin in multidrug-resistant Escherichia coli, a clinical multidrug-resistant and carbapenem-resistant Escherichia coli sample No. 28 was prepared according to Embodiment 1, and 20 mM sodium formate and different kinds of antibiotics were added, respectively. After 10 hours of action, the number of live bacteria was counted, and the survival rate of the bacteria with different antibiotics was calculated after adding sodium formate.
compound,measurement,setting,value
O=C[O-].[Na+] [sodium formate],killing effect on bacteria,[1]; 20 mM sodium formate alone,no killing effect
same,killing effect on bacteria,[2]; 20 mM sodium formate alone,no killing effect
CNC[C@@H]1CC[C@@H](N)[C@@H](O[C@H]2[C@H](O)[C@@H](O[C@H]3OC[C@](C)(O)[C@H](NC)[C@H]3O)[C@H](N)C[C@@H]2N)O1 [micronomicin],survival rate,"[1]; 60 μg/mL micronomicin only, all 18 strains",67-97%
same,survival rate,"[2]; 60 μg/mL micronomicin only, remaining 8 strains",less than 60%
same,number of live bacteria,"[3]; 60 μg/mL micronomicin only, 1-4 hours",remained basically unchanged
same,survival rate,"[3]; 60 μg/mL micronomicin only, 6 hours",87.96%
same,survival rate,"[3]; 60 μg/mL micronomicin only, 16 hours",72.72%
same,survival rate,"[3]; 60 μg/mL micronomicin only, 24 hours",34.64%
same,survival rate,"[3]; micronomicin 30 μg/mL without sodium formate, 10 hours",100%
same,survival rate,"[3]; micronomicin 60 μg/mL without sodium formate, 10 hours",77.37%
same,survival rate,"[3]; micronomicin 120 μg/mL without sodium formate, 10 hours",35.87%
same,survival rate,"[3]; micronomicin 240 μg/mL without sodium formate, 10 hours",29.77%
same,survival rate,"[3]; micronomicin 480 μg/mL without sodium formate, 10 hours",29.01%
same,bacterial survival rate,"[3]; sodium formate gradient experiment, control group: 60 μg/mL micronomicin without sodium formate, 10 hours",72.3%
